Experiments:
Format in all cases: in vivo
[1] = tested on: Rhipicephalus microplus; assay: Rhipicephalus (Boophilus) microplus injection test (BOOPMI Inj); details: 168 h, injection into adult engorged female ticks, egg deposition after 7 days, read-out: activity (efficacy: 100% means all eggs are infertile); for pest or weed control at 0.004 mg: application rate 4 μg/tick; for pest or weed control at 0.02 mg: application rate 20 μg/tick
Summary of the method: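 Compound in DMSO, 1 μL, injected abdominally into five adult engorged females, which were then held in a climate chamber. Read-out is egg fertility, scored from deposition at 7 days, with unclear eggs followed to hatching (~42 days); 0% means all eggs fertile, 100% all infertile.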

[2] = tested on: Rhipicephalus microplus; assay: Rhipicephalus (Boophilus) microplus in-vitro contact test, larval cattle tick, strain Parkhurst (BOOPMI Cont); details: application rate 5 μg/cm^2 (=500 g/ha), tick larvae, after 48 hours, read-out: activity (efficacy: 100% means all larvae are dead or moribund)
Summary of the method: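 After 48 h at 27° C. and 85% humidity, percent dead or moribund larvae was scored from negative geotactic behaviour. Larvae (20-50, Parkhurst strain, synthetic pyrethroid-resistant) were exposed in tubes coated with compound from acetone, 900 ppm corresponding to 5 μg/cm^2.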

[3] = tested on: Ctenocephalides felis; assay: Ctenocephalides felis in-vitro contact test, adult cat flea (CTECFE Cont); details: application rate 5 μg/cm^2 (=500 g/ha), adult cat fleas, after 48 hours, read-out: activity (efficacy: 100% means all fleas are dead or moribund)
Procedure: Ctenocephalides felis—In-Vitro Contact Tests Adult Cat Flea (CTECFE Cont)
9 mg compound is solved in 1 mL acetone and diluted with acetone to the desired concentration. 250 μL of the test solution is filled in 25 mL glass test tubes and homogeneously distributed on the inner walls by rotation and tilting on a shaking device (2 h at 30 rpm). With a compound concentration of 900 ppm, an inner surface of 44.7 cm^2 and a homogeneous distribution, a dose of 5 μg/cm^2 is achieved.
After the solvent has evaporated, each test tube is filled with 5-10 adult cat fleas (Ctenocephalides felis), closed with a perforated lid and incubated in a lying position at room temperature and relative humidity. After 48 hours efficacy is determined. The fleas are patted on the ground of the tubes and are incubated on a heating plate at 45-50° C. for at most 5 minutes. Immotile or uncoordinated moving fleas, which are not able to escape the heat by climbing upwards, are marked as dead or moribund.
An efficacy of 100% means all fleas are dead or moribund; 0% means no fleas are dead or moribund.

[4] = tested on: Diabrotica balteata; assay: Diabrotica balteata spray test; details: 168 h, wheat seeds, larvae, after 7 days, read-out: activity (efficacy: 100% means all seedlings have grown up like in the untreated, uninfected control); for pest or weed control at 32 µg/disc, 100 g/ha: application rate 100 g/ha (=32 μg/well); for pest or weed control at 160 µg/disc, 500 g/ha: application rate 500 g/ha (=160 μg/well)
Summary of the method: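 Efficacy (%) was scored 7 days after spraying, with 100% meaning growth like the untreated, uninfected control and 0% meaning no seedling grew. Spray solutions of compound in acetone/DMF with emulsifier-containing water went onto 1-day-germinated wheat seeds, and each unit was then infested with 10-20 banded cucumber beetle larvae.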

[5] = tested on: Myzus persicae; assay: Myzus persicae oral test; details: 120 h, read-out: activity (mortality)
Summary of the method: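 Percent mortality was recorded at day 5, where 0% means no aphids killed. Compound prepared from an acetone concentrate diluted in water and combined with IPL41 medium containing sugar was offered to mixed-stage green peach aphids, which sucked it through a parafilm seal.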

[6] = tested on: Spodoptera frugiperda; assay: Spodoptera frugiperda spray test; details: in Zea mays, 168 h, read-out: activity (mortality)
Summary of the method: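 Percent kill of fall armyworm caterpillars was assessed 7 days after infesting dried, treated maize leaf sections. Treatment was a spray of compound in acetone/dimethylformamide, diluted with water containing emulsifier at 1000 ppm.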

[7] = tested on: Aedes aegypti strain MONHEIM; assay: Aedes aegypti test (AEDSAE surface treatment & contact assay); details: exposure 30 minutes, 24 hours after contact, read-out: efficacy (mortality); for mortality at 4 mg/m2: surface concentration 4 mg/m^2, glazed tile; for mortality at 20 mg/m2: surface concentration 20 mg/m^2, glazed tile
Summary of the method: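 Compound dissolved in acetone (2 mg/ml) with 2000 ppm rapeseed oil methyl ester, pipetted onto glazed tile and dried. Adult mosquitoes exposed on the surface for 30 min; percent mortality scored 24 h after contact.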

[8] = tested on: Musca domestica strain WHO—N; assay: Musca domestica test (MUSCDO surface treatment & contact assay); details: exposure 30 minutes, 24 hours after contact, read-out: efficacy (mortality); for mortality at 4 mg/m2: surface concentration 4 mg/m^2, glazed tile; for mortality at 20 mg/m2: surface concentration 20 mg/m^2, glazed tile
Procedure: Musca domestica Test (MUSCDO Surface Treatment & Contact Assay) Solvent: Aceton+2000 ppm rapeseed oil methyl ester (RME)
In order to produce a sufficient, active ingredient containing solution it is necessary to solve the test compound in the solvent-mix (acetone at 2 mg/ml/RME 2000 ppm). This solution is pipetted onto a glazed tile and after evaporation of the acetone, adult flies of the species Musca domestica strain WHO—N are placed onto the dried surface. The exposure time is 30 minutes. Mortality in percent (%) is determined 24 hours after contact of the insects to the treated surface. 100% mortality means that all tested insects are dead, whereas 0% means that no insect died.

[9] = tested on: Ctenocephalides felis; assay: Ctenocephalides felis oral test (CTECFE Oral); details: 48 h, read-out: activity (mortality)
Summary of the method: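 Percent mortality was recorded 2 days after roughly 20 adult Ctenocephalides felis fed on treated cattle blood. The blood was warmed to 37 °C beneath a parafilm membrane, with the fleas kept at room temperature. Compound was dissolved in DMSO and diluted into the blood to test concentration.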

[10] = tested on: Rhipicephalus sanguineus; assay: Rhipicephalus sanguineus in-vitro contact test, adult brown dog ticks (RHIPSA Cont); details: 48 h, after 48 hours, read-out: activity (efficacy: 100% means all ticks are dead or moribund); for pest or weed control at 1 µg/cm2, 100 g/ha: application rate 1 μg/cm^2 (=100 g/ha); for pest or weed control at 5 µg/cm2, 500 g/ha: application rate 5 μg/cm^2 (=500 g/ha)
Summary of the method: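 Compound in acetone was coated onto the inner walls of glass tubes and dried by rotation before adult brown dog ticks were exposed. Efficacy was scored at 48 h. Ticks unable to climb away from a 45–50 °C heating plate within 5 min counted as dead or moribund.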

CCc1nc([C@H](C)NC(=O)c2cc(Cl)cc(C(F)(F)F)c2)n(-c2ccc(C#N)cn2)n1 [I-3]
pest or weed control at 0.004 mg [1]: 100% | pest or weed control at 0.02 mg [1]: 100% | pest or weed control at 5 µg/cm2 [2]: 100% | pest or weed control at 5 µg/cm2 [3]: 100% | pest or weed control at 32 µg/disc, 100 g/ha [4]: 100% | pest or weed control at 160 µg/disc, 500 g/ha [4]: 100% | mortality at 4 ppm [5]: 90% | mortality at 100 g/ha [6]: 100% | mortality at 500 g/ha [6]: 100% | mortality at 4 mg/m2 [7]: 80 to 100% | mortality at 20 mg/m2 [7]: 80 to 100% | mortality at 4 mg/m2 [8]: 80 to 100% | mortality at 20 mg/m2 [8]: 80 to 100%

CC(C)c1nc([C@H](C)NC(=O)c2cc(Br)cc(Br)c2)n(-c2ccc(C#N)cn2)n1 [I-24]
pest or weed control at 0.004 mg [1]: 100% | pest or weed control at 0.02 mg [1]: 100% | pest or weed control at 5 µg/cm2 [2]: 100% | pest or weed control at 5 µg/cm2 [3]: 80% | mortality at 100 ppm [9]: 100% | pest or weed control at 1 µg/cm2, 100 g/ha [10]: 100% | pest or weed control at 5 µg/cm2, 500 g/ha [10]: 100% | pest or weed control at 32 µg/disc, 100 g/ha [4]: 100% | mortality at 100 g/ha [6]: 100%

COc1nc([C@H](C)NC(=O)c2cc(Br)cc(Br)c2)n(-c2ccc(C#N)cn2)n1 [I-61]
pest or weed control at 0.004 mg [1]: 100% | pest or weed control at 5 µg/cm2 [2]: 100% | pest or weed control at 5 µg/cm2 [3]: 80% | pest or weed control at 1 µg/cm2, 100 g/ha [10]: 100% | pest or weed control at 5 µg/cm2, 500 g/ha [10]: 100% | pest or weed control at 32 µg/disc, 100 g/ha [4]: 100% | mortality at 4 ppm [5]: 100% | mortality at 100 g/ha [6]: 100%

CC(C)N(C(=O)c1ccc(-n2ncnc2[C@H](C)NC(=O)c2cc(Cl)cc(C(F)(F)F)c2)nc1)C1CC1 [II-29]
pest or weed control at 0.004 mg [1]: 100% | pest or weed control at 0.02 mg [1]: 100% | pest or weed control at 5 µg/cm2 [2]: 100% | pest or weed control at 5 µg/cm2 [3]: 100% | mortality at 100 ppm [9]: 100% | pest or weed control at 1 µg/cm2, 100 g/ha [10]: 100% | pest or weed control at 5 µg/cm2, 500 g/ha [10]: 100% | pest or weed control at 32 µg/disc, 100 g/ha [4]: 100% | pest or weed control at 160 µg/disc, 500 g/ha [4]: 100% | mortality at 100 g/ha [6]: 83% | mortality at 500 g/ha [6]: 100% | mortality at 4 mg/m2 [7]: 80 to 100% | mortality at 20 mg/m2 [7]: 80 to 100%

C[C@H](NC(=O)c1cc(Cl)cc(OC(F)(F)F)c1)c1ncnn1-c1cc(C#N)ccn1 [II-33]
pest or weed control at 0.004 mg [1]: 100% | pest or weed control at 0.02 mg [1]: 100% | pest or weed control at 5 µg/cm2 [2]: 100% | pest or weed control at 5 µg/cm2 [3]: 90% | pest or weed control at 1 µg/cm2, 100 g/ha [10]: 80% | pest or weed control at 5 µg/cm2, 500 g/ha [10]: 80% | pest or weed control at 32 µg/disc, 100 g/ha [4]: 100% | pest or weed control at 160 µg/disc, 500 g/ha [4]: 100% | mortality at 4 ppm [5]: 100% | mortality at 100 g/ha [6]: 100% | mortality at 500 g/ha [6]: 100% | mortality at 4 mg/m2 [7]: 80 to 100% | mortality at 20 mg/m2 [7]: 80 to 100% | mortality at 4 mg/m2 [8]: 80 to 100% | mortality at 20 mg/m2 [8]: 80 to 100%

C[C@H](NC(=O)c1cc(Cl)cc(C(F)(F)F)c1)c1ncnn1-c1ccc(C(=O)N(C)CC(F)(F)F)cn1 [II-69]
pest or weed control at 0.004 mg [1]: 100% | pest or weed control at 0.02 mg [1]: 100% | pest or weed control at 5 µg/cm2 [2]: 100% | pest or weed control at 5 µg/cm2 [3]: 90% | mortality at 100 ppm [9]: 100% | pest or weed control at 1 µg/cm2, 100 g/ha [10]: 100% | pest or weed control at 5 µg/cm2, 500 g/ha [10]: 100% | pest or weed control at 32 µg/disc, 100 g/ha [4]: 80% | mortality at 4 ppm [5]: 100% | mortality at 100 g/ha [6]: 83% | mortality at 500 g/ha [6]: 100%

CCN(CC)C(=O)c1ccnc(-n2ncnc2[C@H](C)NC(=O)c2cc(C(F)(F)F)cc(C(F)(F)F)c2)c1 [II-85]
pest or weed control at 5 µg/cm2 [2]: 100% | pest or weed control at 5 µg/cm2 [3]: 100% | pest or weed control at 1 µg/cm2, 100 g/ha [10]: 100% | pest or weed control at 5 µg/cm2, 500 g/ha [10]: 100% | pest or weed control at 32 µg/disc, 100 g/ha [4]: 100% | mortality at 4 ppm [5]: 100% | mortality at 100 g/ha [6]: 83%

C[C@H](NC(=O)c1cc(C(F)(F)F)cc(C(F)(F)F)c1)c1ncnn1-c1cc(C(=O)N(C)C)ccn1 [II-86]
pest or weed control at 5 µg/cm2 [2]: 100% | pest or weed control at 5 µg/cm2 [3]: 100% | mortality at 100 ppm [9]: 100% | pest or weed control at 1 µg/cm2, 100 g/ha [10]: 100% | pest or weed control at 5 µg/cm2, 500 g/ha [10]: 80% | pest or weed control at 32 µg/disc, 100 g/ha [4]: 100% | mortality at 0.8 ppm [5]: 100% | mortality at 4 ppm [5]: 100% | mortality at 100 g/ha [6]: 100%

C[C@H](NC(=O)c1cc(Cl)cc(C(F)(F)F)c1)c1ncnn1-c1cc(-n2ccnc2)ccn1 [II-102]
pest or weed control at 0.004 mg [1]: 100% | pest or weed control at 5 µg/cm2 [2]: 90% | pest or weed control at 5 µg/cm2 [3]: 80% | mortality at 100 ppm [9]: 100%

C[C@H](NC(=O)c1cc(Br)cc(I)c1)c1ncnn1-c1ccc(C#N)cn1 [II-112]
pest or weed control at 0.004 mg [1]: 100% | pest or weed control at 5 µg/cm2 [2]: 100% | pest or weed control at 5 µg/cm2 [3]: 80% | mortality at 100 ppm [9]: 100% | pest or weed control at 1 µg/cm2, 100 g/ha [10]: 100% | pest or weed control at 5 µg/cm2, 500 g/ha [10]: 100% | pest or weed control at 32 µg/disc, 100 g/ha [4]: 100% | mortality at 100 g/ha [6]: 100%

From patent US20220274947A1, “NOVEL HETEROARYL-TRIAZOLE COMPOUNDS AS PESTICIDES” (Bayer Aktiengesellschaft, priority 2019, published 2022)
